SMILES strings stand for the structures. Bounds are passed on as bounds.

This experiment has as its target T1, NPM-ALK fusion protein (Homo sapiens, UniProt Q9UM73).
T1 construct: endogenous in cells; host or cells: SU-DHL-1; the other entry of the earlier key: NPM1 (P06748, Nucleophosmin)
Briefly: Western blot of NPM-ALK fusion protein levels in SU-DHL-1 cells. In kind it is cell-based. The conditions noted are these: SU-DHL-1 cells, 30 nM, Western blot; read-out: ALK fusion protein degradation, SU-DHL-1 (30 nM). The protocol:
Cells were cultured in a 37° C. incubator with 5% CO2.
Cells were washed with cold PBS once and lysed in 1× Laemmli loading buffer directly. […] Membrane was blocked in 5% milk in Tris-buffered saline and Tween 20 (TBST) for 1 h at room temperature, followed by incubation with a primary antibody overnight at 4° C., and a horseradish peroxidase (HRP)-conjugated secondary antibody for 1 h at room temperature. The membrane was imaged by a ChemiDoc MP imaging system (BIO-RAD). Antibodies against GAPDH (abeam), Phospho-ALK (Tyr1507), ALK (Cell Signaling Technology), Tubulin (Santa Cruz) were purchased commercially.
SU-DHL-1 suspension cells were seeded in 12-well plates at a density of 6×10^5/mL and treated with DMSO or indicated compounds at 30 nM or 100 nM for indicated time.
SU-DHL-1 cells were seeded in 12-well plates at a density of 4×10^5/mL and treated with DMSO or indicated serial dilutions of compounds for 16 h. The NPM-ALK fusion protein levels were determined by Western blot and normalized against GPADH (right panel).

T1 sequence (Q9UM73 with tags, fused parts or gaps): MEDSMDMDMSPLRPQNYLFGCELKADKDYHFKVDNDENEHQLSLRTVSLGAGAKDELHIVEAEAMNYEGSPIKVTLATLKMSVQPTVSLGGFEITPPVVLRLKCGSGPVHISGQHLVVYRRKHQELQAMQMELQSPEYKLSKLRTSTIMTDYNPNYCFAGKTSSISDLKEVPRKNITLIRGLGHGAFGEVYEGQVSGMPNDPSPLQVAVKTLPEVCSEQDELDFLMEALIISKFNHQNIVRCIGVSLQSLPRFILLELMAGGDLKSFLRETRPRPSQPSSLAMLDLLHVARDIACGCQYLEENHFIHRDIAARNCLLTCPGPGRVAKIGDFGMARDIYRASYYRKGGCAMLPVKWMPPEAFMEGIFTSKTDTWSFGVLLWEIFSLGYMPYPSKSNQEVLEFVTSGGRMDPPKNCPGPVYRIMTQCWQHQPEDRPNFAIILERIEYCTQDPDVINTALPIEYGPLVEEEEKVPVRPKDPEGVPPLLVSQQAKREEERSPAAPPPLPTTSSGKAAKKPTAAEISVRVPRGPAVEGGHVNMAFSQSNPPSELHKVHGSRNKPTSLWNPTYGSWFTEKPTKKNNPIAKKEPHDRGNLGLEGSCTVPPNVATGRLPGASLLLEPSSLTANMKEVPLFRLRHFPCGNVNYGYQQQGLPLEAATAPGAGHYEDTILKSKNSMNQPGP

As for `Cc1cc(Nc2ncc(Cl)c(Nc3ccccc3S(=O)(=O)C(C)C)n2)c(OC(C)C)cc1C1CCN(CC(=O)NCCCCC(=O)N[C@H](C(=O)N2C[C@H](O)C[C@H]2C(=O)NCc2ccc(-c3scnc3C)cc2)C(C)(C)C)CC1` [CZ40-88, (2S,4R)-1-((S)-2-(5-(2-(4-(4-((5-Chloro-4-((2-(isopropylsulfonyl)phenyl)amino)pyrimidin-2-yl)amino)-5-isopropoxy-2-methylphenyl)piperidin-1-yl)acetamido)pentanamido)-3,3-dimethylbutanoyl)-4-hydroxy-N-(4-(4-methylthiazol-5-yl)benzyl)pyrrolidine-2-carboxamide], the Dmax at 0.03 µM lay within 20 to 80%.

On to `Cc1cc(Nc2ncc(Cl)c(Nc3ccccc3S(=O)(=O)C(C)C)n2)c(OC(C)C)cc1C1CCN(CC(=O)NCCCCCCCNc2cccc3c2C(=O)N(C2CCC(=O)NC2=O)C3=O)CC1` (stereo not drawn) [CZ40-83, 2-(4-(4-((5-Chloro-4-((2-(isopropylsulfonyl)phenyl)amino)pyrimidin-2-yl)amino)-5-isopropoxy-2-methylphenyl)piperidin-1-yl)-N-(7-((2-(2,6-dioxopiperidin-3-yl)-1,3-dioxoisoindolin-4-yl)amino)heptyl)acetamide], for which the Dmax at 0.03 µM is greater than 80%.

On to `Cc1cc(Nc2ncc(Cl)c(Nc3ccccc3S(=O)(=O)C(C)C)n2)c(OC(C)C)cc1C1CCN(CC(=O)NCCOCCOCCOCCOCCC(=O)N[C@H](C(=O)N2C[C@H](O)C[C@H]2C(=O)NCc2ccc(-c3scnc3C)cc2)C(C)(C)C)CC1` [CZ40-87, (2S,4R)-1-((S)-20-(tert-Butyl)-1-(4-(4-((5-chloro-4-((2-(isopropylsulfonyl)phenyl)amino)pyrimidin-2-yl)amino)-5-isopropoxy-2-methylphenyl)piperidin-1-yl)-2,18-dioxo-6,9,12,15-tetraoxa-3,19-diazahenicosan-21-oyl)-4-hydroxy-7V-(4-(4-methylthiazol-5-yl)benzyl)pyrrolidine-2-carboxamide], for which the Dmax at 0.03 µM is less than 20%.

Consider `Cc1cc(Nc2ncc(Cl)c(Nc3ccccc3S(=O)(=O)C(C)C)n2)c(OC(C)C)cc1C1CCN(CC(=O)NCCOCCOCCNc2cccc3c2C(=O)N(C2CCC(=O)NC2=O)C3=O)CC1` (stereo not drawn) [CZ40-51, 2-(4-(4-((5-Chloro-4-((2-(isopropylsulfonyl)phenyl)amino)pyrimidin-2-yl)amino)-5-isopropoxy-2-methylphenyl)piperidin-1-yl)-N-(2-(2-(2-((2-(2,6-dioxopiperidin-3-yl)-1,3-dioxoisoindolin-4-yl)amino)ethoxy)ethoxy)ethyl)acetamide], for which the Dmax at 0.03 µM was greater than 80%.

For the compound `Cc1cc(Nc2ncc(Cl)c(Nc3ccccc3S(=O)(=O)C(C)C)n2)c(OC(C)C)cc1C1CCN(CC(=O)NCCCCCCCCCC(=O)N[C@H](C(=O)N2C[C@H](O)C[C@H]2C(=O)NCc2ccc(-c3scnc3C)cc2)C(C)(C)C)CC1` [CZ40-93], the Dmax at 0.03 µM was less than 20%.

For `Cc1cc(Nc2ncc(Cl)c(Nc3ccccc3S(=O)(=O)C(C)C)n2)c(OC(C)C)cc1C1CCN(CC(=O)NCCCCCCCCNc2cccc3c2C(=O)N(C2CCC(=O)NC2=O)C3=O)CC1` (stereo not drawn) [CZ40-84, 2-(4-(4-((5-Chloro-4-((2-(isopropylsulfonyl)phenyl)amino)pyrimidin-2-yl)amino)-5-isopropoxy-2-methylphenyl)piperidin-1-yl)-N-(8-((2-(2,6-dioxopiperidin-3-yl)-1,3-dioxoisoindolin-4-yl)amino)octyl)acetamide], the Dmax at 0.03 µM lay within 20 to 80%.

On to `Cc1cc(Nc2ncc(Cl)c(Nc3ccccc3S(=O)(=O)C(C)C)n2)c(OC(C)C)cc1C1CCN(CC(=O)NCCCNc2cccc3c2C(=O)N(C2CCC(=O)NC2=O)C3=O)CC1` (stereo not drawn) [CZ40-79, 2-(4-(4-((5-Chloro-4-((2-(isopropylsulfonyl)phenyl)amino)pyrimidin-2-yl)amino)-5-isopropoxy-2-methylphenyl)piperidin-1-yl)-N-(3-((2-(2,6-dioxopiperidin-3-yl)-1,3-dioxoisoindolin-4-yl)amino)propyl)acetamide], for which the Dmax at 0.03 µM is greater than 80%.

For the compound `Cc1cc(Nc2ncc(Cl)c(Nc3ccccc3S(=O)(=O)C(C)C)n2)c(OC(C)C)cc1C1CCN(CC(=O)NCCCCCCNc2cccc3c2C(=O)N(C2CCC(=O)NC2=O)C3=O)CC1` (stereo not drawn) [CZ40-82, 2-(4-(4-((5-Chloro-4-((2-(isopropylsulfonyl)phenyl)amino)pyrimidin-2-yl)amino)-5-isopropoxy-2-methylphenyl)piperidin-1-yl)-N-(6-((2-(2,6-dioxopiperidin-3-yl)-1,3-dioxoisoindolin-4-yl)amino)hexyl)acetamide], the Dmax at 0.03 µM is greater than 80%.

Take `Cc1cc(Nc2ncc(Cl)c(Nc3ccccc3S(=O)(=O)C(C)C)n2)c(OC(C)C)cc1C1CCN(CC(=O)NCCOCC(=O)N[C@H](C(=O)N2C[C@H](O)C[C@H]2C(=O)NCc2ccc(-c3scnc3C)cc2)C(C)(C)C)CC1` [CZ40-85, (2S,4R)-1-((S)-2-(2-(2-(2-(4-(4-((5-Chloro-4-((2-(isopropylsulfonyl)phenyl)amino)pyrimidin-2-yl)amino)-5-isopropoxy-2-methylphenyl)piperidin-1-yl)acetamido)ethoxy)acetamido)-3,3-dimethylbutanoyl)-4-hydroxy-N-(4-(4-methylthiazol-5-yl)benzyl)pyrrolidine-2-carboxamide]: the Dmax at 0.03 µM was less than 20%.

For the compound `Cc1cc(Nc2ncc(Cl)c(Nc3ccccc3S(=O)(=O)C(C)C)n2)c(OC(C)C)cc1C1CCN(CC(=O)NCCCCCNc2cccc3c2C(=O)N(C2CCC(=O)NC2=O)C3=O)CC1` (stereo not drawn) [CZ40-81, 2-(4-(4-((5-Chloro-4-((2-(isopropylsulfonyl)phenyl)amino)pyrimidin-2-yl)amino)-5-isopropoxy-2-methylphenyl)piperidin-1-yl)-N-(5-((2-(2,6-dioxopiperidin-3-yl)-1,3-dioxoisoindolin-4-yl)amino)pentyl)acetamide], the Dmax at 0.03 µM is greater than 80%.

Consider `Cc1cc(Nc2ncc(Cl)c(Nc3ccccc3S(=O)(=O)C(C)C)n2)c(OC(C)C)cc1C1CCN(CC(=O)NCCOCCOCCOCCNc2cccc3c2C(=O)N(C2CCC(=O)NC2=O)C3=O)CC1` (stereo not drawn) [CZ40-52, 2-(4-(4-((5-Chloro-4-((2-(isopropylsulfonyl)phenyl)amino)pyrimidin-2-yl)amino)-5-isopropoxy-2-methylphenyl)piperidin-1-yl)-N-(2-(2-(2-(2-((2-(2,6-dioxopiperidin-3-yl)-1,3-dioxoisoindolin-4-yl)amino)ethoxy)ethoxy)ethoxy)ethyl)acetamide], for which the Dmax at 0.03 µM was greater than 80%.

As to `Cc1cc(Nc2ncc(Cl)c(Nc3ccccc3S(=O)(=O)C(C)C)n2)c(OC(C)C)cc1C1CCN(CC(=O)NCCCCCCC(=O)N[C@H](C(=O)N2C[C@H](O)C[C@H]2C(=O)NCc2ccc(-c3scnc3C)cc2)C(C)(C)C)CC1` [CZ40-90, (2S,4R)-1-((S)-2-(7-(2-(4-(4-((5-Chloro-4-((2-(isopropylsulfonyl)phenyl)amino)pyrimidin-2-yl)amino)-5-isopropoxy-2-methylphenyl)piperidin-1-yl)acetamido)heptanamido)-3,3-dimethylbutanoyl)-4-hydroxy-N-(4-(4-methylthiazol-5-yl)benzyl)pyrrolidine-2-carboxamide], the Dmax at 0.03 µM was less than 20%.

As for `Cc1cc(Nc2ncc(Cl)c(Nc3ccccc3S(=O)(=O)C(C)C)n2)c(OC(C)C)cc1C1CCN(CC(=O)NCCCCNc2cccc3c2C(=O)N(C2CCC(=O)NC2=O)C3=O)CC1` (stereo not drawn) [CZ40-80, 2-(4-(4-((5-Chloro-4-((2-(isopropylsulfonyl)phenyl)amino)pyrimidin-2-yl)amino)-5-isopropoxy-2-methylphenyl)piperidin-1-yl)-N-(4-((2-(2,6-dioxopiperidin-3-yl)-1,3-dioxoisoindolin-4-yl)amino)butyl)acetamide], the Dmax at 0.03 µM lay within 20 to 80%.

Regarding `Cc1cc(Nc2ncc(Cl)c(Nc3ccccc3S(=O)(=O)C(C)C)n2)c(OC(C)C)cc1C1CCN(CC(=O)NCCOCCOCC(=O)N[C@H](C(=O)N2C[C@H](O)C[C@H]2C(=O)NCc2ccc(-c3scnc3C)cc2)C(C)(C)C)CC1` [CZ40-86, (2S,4R)-1-((S)-2-(tert-Butyl)-14-(4-(4-((5-chloro-4-((2-(isopropylsulfonyl)phenyl)amino)pyrimidin-2-yl)amino)-5-isopropoxy-2-methylphenyl)piperidin-1-yl)-4,13-dioxo-6,9-dioxa-3,12-diazatetradecanoyl)-4-hydroxy-N-(4-(4-methylthiazol-5-yl)benzyl)pyrrolidine-2-carboxamide], the Dmax at 0.03 µM is less than 20%.

Take `Cc1cc(Nc2ncc(Cl)c(Nc3ccccc3S(=O)(=O)C(C)C)n2)c(OC(C)C)cc1C1CCN(CC(=O)NCCCCCC(=O)N[C@H](C(=O)N2C[C@H](O)C[C@H]2C(=O)NCc2ccc(-c3scnc3C)cc2)C(C)(C)C)CC1` [CZ40-89, (2S,4R)-1-((S)-2-(6-(2-(4-(4-((5-chloro-4-((2-(isopropylsulfonyl)phenyl)amino)pyrimidin-2-yl)amino)-5-isopropoxy-2-methylphenyl)piperidin-1-yl)acetamido)hexanamido)-3,3-dimethylbutanoyl)-4-hydroxy-N-(4-(4-methylthiazol-5-yl)benzyl)pyrrolidine-2-carboxamide]: the Dmax at 0.03 µM fell in the range of 20 to 80%.
